Test results published in publication PMC5193077, “An Allosteric Potentiator of the Dopamine D1 Receptor Increases Locomotor Activity in Human D1 Knock-In Mice without Causing Stereotypy or Tachyphylaxis” (The Journal of Pharmacology and Experimental Therapeutics, 2017).

How the values were obtained:
β2 receptor = β2 receptor (Homo sapiens, UniProt P07550); assay: β2 cAMP assay (DiscoveRx); assay type: cell-based; conditions: potentiator, agonist and antagonist mode, up to 10 µM
Description: (§1) The D2, β1, β2, β3, and 5HT6 cAMP assays were performed at DiscoveRx using the protocols described on their website (www.discoverx.com).

hD1 mice = assay: Locomotor activity (LMA) in hD1 mice; assay type: in vivo, mouse
Source text: Male hD1 mice, 8–10 weeks old (weighing 18 to 25 g at the time of the experiment), were used. Monitoring of mouse LMA took place in transparent plastic shoebox cages having dimensions of 45 × 25 × 20 cm, with a 1-cm depth of wood chips for absorbent bedding, and covered with a ventilated filtered plastic cage top.
Cages were placed in a rectangular frame containing a grid of 12 photocell beams in an 8 × 4 configuration (Kinder Scientific, Poway, CA) that were positioned 2.5 cm from the floor of the cage for the detection of body movements (ambulations), which were recorded by computer for analysis. Mice were placed inside individual LMA boxes for 1 hour during an acclimation period. Mice were then dosed with test compounds (oral or subcutaneous) and were replaced inside individual LMA boxes for the start of LMA. Photocell activity (total ambulations) was collected for 60 minutes using software from Hamilton Kinder (Poway, CA).
Calculation of data based on total ambulations was done using Excel (Microsoft, Redmond, WA). Graphing and statistical analysis of data were done using one-way analysis of variance followed by Dunnett’s multiple comparison test using GraphPad Prism.

D2 receptor = D2 receptor (Homo sapiens, UniProt P14416); assay: D2 cAMP assay (DiscoveRx); assay type: cell-based; conditions: potentiator, agonist and antagonist mode, up to 10 µM
Sequence of D2 receptor (P14416 whole entry): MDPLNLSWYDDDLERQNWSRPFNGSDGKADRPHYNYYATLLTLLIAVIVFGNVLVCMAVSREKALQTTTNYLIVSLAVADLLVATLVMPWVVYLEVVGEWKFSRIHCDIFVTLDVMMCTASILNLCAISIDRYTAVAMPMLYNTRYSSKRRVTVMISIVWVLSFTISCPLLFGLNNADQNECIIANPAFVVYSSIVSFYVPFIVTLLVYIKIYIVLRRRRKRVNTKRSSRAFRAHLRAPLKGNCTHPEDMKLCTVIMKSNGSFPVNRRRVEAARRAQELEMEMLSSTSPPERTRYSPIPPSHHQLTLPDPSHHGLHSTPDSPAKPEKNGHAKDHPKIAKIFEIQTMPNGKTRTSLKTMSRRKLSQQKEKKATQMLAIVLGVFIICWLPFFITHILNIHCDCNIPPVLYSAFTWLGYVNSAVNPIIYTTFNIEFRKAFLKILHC
Description: as §1

Sequence of β2 receptor (P07550 whole entry): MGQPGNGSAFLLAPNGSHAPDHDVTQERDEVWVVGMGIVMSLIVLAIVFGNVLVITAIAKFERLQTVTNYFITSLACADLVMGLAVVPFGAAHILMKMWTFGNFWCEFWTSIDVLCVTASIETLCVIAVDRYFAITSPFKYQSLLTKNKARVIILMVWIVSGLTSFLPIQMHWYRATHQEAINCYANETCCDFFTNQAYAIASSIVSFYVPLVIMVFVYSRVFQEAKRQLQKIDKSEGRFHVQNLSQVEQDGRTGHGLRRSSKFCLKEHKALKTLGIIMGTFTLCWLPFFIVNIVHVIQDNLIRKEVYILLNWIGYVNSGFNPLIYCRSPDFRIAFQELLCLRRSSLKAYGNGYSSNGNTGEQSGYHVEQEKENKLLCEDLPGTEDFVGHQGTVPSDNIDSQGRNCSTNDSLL

Compound: C[C@H]1c2cccc(C(C)(C)O)c2C[C@H](CO)N1C(=O)Cc1c(Cl)cccc1Cl [DETQ, 2-(2,6-dichlorophenyl)-1-((1S,3R)-3-(hydroxymethyl)-5-(2-hydroxypropan-2-yl)-1-methyl-3,4-dihydroisoquinolin-2(1H)-yl)ethan-1-one]
- Activity at β2 receptor (β2 receptor): inactive
- EC50 (hD1 mice; Mus musculus, four-parameter fit, unbound brain concentration, hD1 mice, read-out: EC50 in LMA versus unbound brain levels): 9.2 nM
- Overt adverse behavioral effects (hD1 mice; any of the doses (up to 240 mg/kg)): no overt adverse behavioral effects were observed
- Bottom of LMA versus unbound brain level curve (hD1 mice; four-parameter fit): 40 % of control
- Top of LMA versus unbound brain level curve (hD1 mice; four-parameter fit): 1,590 % of control
- LMA response after twice-daily dosing (hD1 mice; hD1 mice, 240 mg/kg oral twice daily): No tachyphylaxis
- LMA response on repeated once-a-day dosing (hD1 mice; hD1 mice, once daily for 4 days): undiminished on day 4
- Shape of LMA dose-response curve (hD1 mice; hD1 mice, DETQ up to 240 mg/kg): did not show any drop-off at higher doses
- ED4X (dose causing a 4-fold increase in LMA) (hD1 mice; habituated hD1 mice, oral): 7.2 mg/kg
- Activity at D2 receptor (D2 receptor): inactive
